The values that follow are results of earlier work, collected in patent US20050152951A1, “Liquid, eye-instillable preparations comprising sodium hyaluronate” (priority 2001, published 2005).

The conditions of the data set: water retained by 1 gram of SH.

Turning to Sodium hyaluronate [SH], the water retention result is “up to 6 litres”.
